Earlier results in US4230714A, “Imidazole therapeutic agents” (Pfizer Inc., priority 1978, dated 1980).

How the values were obtained:
[1] = test system: platelet clumping and embolization in the lungs; conditions: rabbit, intravenous arachidonic acid
[2] = test system: human blood platelet aggregation; conditions: variety of aggregating agents
[3] = test system: aggregation of platelets; conditions: rat, extra corporeal loop of the abdominal aorta

SMILES: CC(=O)Oc1ccccc1C(=O)O [aspirin]
- protection from the lethal effect of arachidonic acid injection [1]: protect the rabbit from the lethal effect of the injection
- inhibitory activity against platelet aggregation in vitro [2]: show inhibitory activity in vitro

SMILES: O=C1C(CC[S+]([O-])c2ccccc2)C(=O)N(c2ccccc2)N1c1ccccc1 (stereo not shown) [sulphinpyrazone]
- prevention of platelet aggregation in vivo [3]: prevent the aggregation of platelets
- inhibitory activity against platelet aggregation in vitro [2]: show inhibitory activity in vitro
